Patent US20090233796A1, “HERBICIDAL COMPOSITION” (SYNGENTA CROP PROTECTION, INC., priority 2004, published 2009)

Tests used:
Format in all cases: in vivo
[1] = system: SETARIA SP.; assay: Compound (A) with nicosulfuron, weed plots; details: 21 DAA, No. 3.4
Protocol: (§1) In these tests, various weeds were treated with nicosulfuron alone at a rate equivalent to 35 g per hectare, […] and Compound (A) at rates equivalent to the sum of these. The compositions were formulated as an emulsifyable concentrate (EC).
(§2) The results in the table under each application are the percentage of the plants that were killed.

[2] = system: DIGITARIA SANGUINALIS; assay: Compound (A) with nicosulfuron, weed plots
Protocol: as §1, §2

[3] = system: C[…].; assay: Compound (A) with nicosulfuron, weed plots; details: 5 DAA, No. 3.8
Protocol: as §1, §2

[4] = system: AMBROSIA TRIFIDA; assay: Compound (A) with nicosulfuron, weed plots; details: 28 DAA, No. 3.15
Protocol: as §1, §2

[5] = system: SETARIA VIRIDIS; assay: Compound (A) with nicosulfuron, weed plots; details: 4 DAA, No. 3.11
Protocol: as §1, §2

[6] = system: E[…]-GALLI; assay: Compound (A) with S-metolachlor, weed plots; details: 28 DAA, Trial 4.1
Protocol: (§3) In these tests, various weeds were treated with S-metolachlor (SMOC) alone at an application rate equivalent to 1420 g per hectare, Compound (A) alone at rates equivalent to 20 g per hectare and […] and with mixtures of S-metolachlor and the Compound (A) at rates equivalent to the sum of these. The compositions were formulated as an emulsifyable concentrate (EC).
as §2

[7] = system: SESBANIA EXALTATA; assay: Compound (A) with S-metolachlor, weed plots; details: 56 DAA, Trial 4.2
Protocol: as §3, §2

[8] = system: XANTHIUM STRUMARIUM; assay: Compound (A) with S-metolachlor, weed plots
Protocol: as §3, §2

[9] = system: C[…]; assay: Compound (A) with S-metolachlor, weed plots
Protocol: as §3, §2

[10] = system: IPOMOEA SP.; assay: Compound (A) with S-metolachlor, weed plots
Protocol: as §3, §2

[11] = system: AMBROSIA TRIFIDA; assay: Compound (A) with S-metolachlor, weed plots
Protocol: as §3, §2

[12] = system: AMBROSIA ARTEMISIIFOLIA; assay: Compound (A) with S-metolachlor, weed plots
Protocol: as §3, §2

[13] = system: POLYGONUM PENSYLVANICUM; assay: Compound (A) with S-metolachlor, weed plots; details: 56 DAA, Trial 4.14
Protocol: as §3, §2

[14] = system: Rice; assay: Compound (A) with prosulfuron, weed plots; details: 13 DAA, No. 3.29
Protocol: (§4) In these tests, various weeds were treated with prosulfinuron alone at a rate equivalent to 35 g per hectare, […] and Compound (A) at rates equivalent to the sum of these. The compositions were formulated as an emulsifiable concentrate (EC).
(§5) The results in the tables under each application are the percentage of the plants that were killed.

[15] = system: Brachiaria; assay: Compound (A) with prosulfuron, weed plots; details: 13 DAA, No. 3.27
Protocol: as §4, §5

[16] = system: Wheat; assay: Compound (A) with prosulfuron, weed plots; details: 13 DAA, No. 3.30
Protocol: as §4, §5

[17] = system: Veronica; assay: Compound (A) with prosulfuron, weed plots; details: 13 DAA, No. 3.25
Protocol: as §4, §5

[18] = system: Euphorbia; assay: Compound (A) with prosulfuron, weed plots; details: 13 DAA, No. 3.28
Protocol: as §4, §5

[19] = system: STELLARIA MEDIA; assay: Compound (A) with triasulfuron, weed plots; details: 10 g per hectare; 30 DAA; No. 3.1
Protocol: In these tests, various weeds were treated with triasulfuron alone at a rate equivalent to 26 g per hectare, Compound (A) alone at a rate equivalent to 10 g per hectare, and to a mixture of triasulfuron and Compound (A) at rates equivalent to the sum of these. The compositions were formulated as an emulsifyable concentrate (EC).
as §2

[20] = system: COMMELINA SP.; assay: Compound (A) with nicosulfuron, weed plots
Text: In these tests, […] and Compound (A) at rates equivalent to the sum of these. The compositions were formulated as an emulsifyable concentrate (EC).
as §2

CCOC(=O)COc1ncccc1Oc1cc(-n2c(=O)cc(C(F)(F)F)n(C)c2=O)c(F)cc1Cl [Compound (A)]
percentage of the plants that were killed ([1]; 5 g/ha): 50%
percentage of the plants that were killed ([1]; 10 g/ha): 80%
percentage of the plants that were killed ([1]; 20 g/ha): 93%
percentage of the plants that were killed ([2]; 5 g/ha, 4 DAA, No. 3.6): 20%
percentage of the plants that were killed ([2]; 5 g/ha, 5 DAA, No. 3.14): 25%
percentage of the plants that were killed ([2]; 5 g/ha, 21 DAA, No. 3.5): 50%
percentage of the plants that were killed ([2]; 10 g/ha, 4 DAA, No. 3.6): 90%
percentage of the plants that were killed ([2]; 10 g/ha, 5 DAA, No. 3.14): 50%
percentage of the plants that were killed ([2]; 10 g/ha, 21 DAA, No. 3.5): 80%
percentage of the plants that were killed ([2]; 20 g/ha, 4 DAA, No. 3.6): 98%
percentage of the plants that were killed ([2]; 20 g/ha, 5 DAA, No. 3.14): 99%
percentage of the plants that were killed ([2]; 20 g/ha, 21 DAA, No. 3.5): 93%
percentage of the plants that were killed ([3]; 5 g/ha): 20%
percentage of the plants that were killed ([3]; 10 g/ha): 30%
percentage of the plants that were killed ([3]; 20 g/ha): 95%
percentage of the plants that were killed ([4]; 5 g/ha): 50%
percentage of the plants that were killed ([4]; 10 g/ha): 50%
percentage of the plants that were killed ([4]; 20 g/ha): 60%
percentage of the plants that were killed ([5]; 5 g/ha): 40%
percentage of the plants that were killed ([5]; 10 g/ha): 70%
percentage of the plants that were killed ([5]; 20 g/ha): 85%
percentage of the plants that were killed ([6]; 20 g/ha): 53%
percentage of the plants that were killed ([6]; 40 g/ha): 55%
percentage of the plants that were killed ([7]; 20 g/ha): 50%
percentage of the plants that were killed ([7]; 40 g/ha): 25%
percentage of the plants that were killed ([8]; 20 g/ha, 26 DAA, Trial 4.17): 25%
percentage of the plants that were killed ([8]; 20 g/ha, 42 DAA, Trial 4.18): 23%
percentage of the plants that were killed ([8]; 40 g/ha, 26 DAA, Trial 4.17): 73%
percentage of the plants that were killed ([8]; 40 g/ha, 42 DAA, Trial 4.18): 68%
percentage of the plants that were killed ([9]; 20 g/ha, 26 DAA, Trial 4.5): 80%
percentage of the plants that were killed ([9]; 20 g/ha, 54 DAA, Trial 4.6): 0%
percentage of the plants that were killed ([9]; 20 g/ha, 56 DAA, Trial 4.11): 0%
percentage of the plants that were killed ([9]; 40 g/ha, 26 DAA, Trial 4.5): 80%
percentage of the plants that were killed ([9]; 40 g/ha, 54 DAA, Trial 4.6): 44%
percentage of the plants that were killed ([9]; 40 g/ha, 56 DAA, Trial 4.11): 13%
percentage of the plants that were killed ([10]; 20 g/ha, 25 DAA, Trial 4.9): 35%
percentage of the plants that were killed ([10]; 20 g/ha, 49 DAA, Trial 4.10): 20%
percentage of the plants that were killed ([10]; 40 g/ha, 25 DAA, Trial 4.9): 65%
percentage of the plants that were killed ([10]; 40 g/ha, 49 DAA, Trial 4.10): 60%
percentage of the plants that were killed ([11]; 20 g/ha, 8 DAA, Trial 4.16): 75%
percentage of the plants that were killed ([11]; 20 g/ha, 42 DAA, Trial 4.15): 23%
percentage of the plants that were killed ([11]; 40 g/ha, 8 DAA, Trial 4.16): 95%
percentage of the plants that were killed ([11]; 40 g/ha, 42 DAA, Trial 4.15): 38%
percentage of the plants that were killed ([12]; 20 g/ha, 25 DAA, Trial 4.7): 47%
percentage of the plants that were killed ([12]; 20 g/ha, 49 DAA, Trial 4.8): 30%
percentage of the plants that were killed ([12]; 40 g/ha, 25 DAA, Trial 4.7): 79%
percentage of the plants that were killed ([12]; 40 g/ha, 49 DAA, Trial 4.8): 69%
percentage of the plants that were killed ([13]; 20 g/ha): 0%
percentage of the plants that were killed ([13]; 40 g/ha): 13%
percentage of the plants that were killed ([14]; 1.25 g/ha): 50%
percentage of the plants that were killed ([14]; 2.5 g/ha): 70%
percentage of the plants that were killed ([14]; 5 g/ha): 90%
percentage of the plants that were killed ([15]; 1.25 g/ha): 50%
percentage of the plants that were killed ([15]; 2.5 g/ha): 60%
percentage of the plants that were killed ([15]; 5 g/ha): 98%
percentage of the plants that were killed ([16]; 1.25 g/ha): 80%
percentage of the plants that were killed ([16]; 2.5 g/ha): 95%
percentage of the plants that were killed ([16]; 5 g/ha): 100%
percentage of the plants that were killed ([17]; 1.25 g/ha): 80%
percentage of the plants that were killed ([17]; 2.5 g/ha): 100%
percentage of the plants that were killed ([17]; 5 g/ha): 100%
percentage of the plants that were killed ([18]; 1.25 g/ha): 50%
percentage of the plants that were killed ([18]; 2.5 g/ha): 70%
percentage of the plants that were killed ([18]; 5 g/ha): 70%
percentage of the plants that were killed [19]: 63%
percentage of the plants that were killed ([20]; 5 g/ha, 10 DAA, No. 3.18): 30%
percentage of the plants that were killed ([20]; 5 g/ha, 17 DAA, No. 3.19): 20%
percentage of the plants that were killed ([20]; 10 g/ha, 10 DAA, No. 3.18): 50%
percentage of the plants that were killed ([20]; 10 g/ha, 17 DAA, No. 3.19): 30%
percentage of the plants that were killed ([20]; 20 g/ha, 10 DAA, No. 3.18): 58%
percentage of the plants that were killed ([20]; 20 g/ha, 17 DAA, No. 3.19): 50%
